Assay results as given in patent publication US20050090529A1, “3,5 Disubstituted indazole compounds with nitrogen-bearing 5-membered heterocycles, pharmaceutical compositions, and methods for mediating or inhibiting cell proliferation” (PFIZER INC, priority 2003, published 2005).

These compounds were tested on Cyclin-dependent kinase (assay: Cyclin-dependent kinase inhibition, % inhibition at 10 nM (library Examples 99-270)). Settings: 10 nM compound.
Assay type: biochemical
Outline: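 Radiometric filter assay: kinase transfers ³²P/³³P from 25 μM ATP to a protein substrate in pH 7.4 HEPES buffer with MgCl2, 2% DMSO, 30° C, 20 min. EDTA stop; substrate captured on nitrocellulose or phosphocellulose membrane, washed with phosphoric acid, counted by phosphorimager.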

% Inhib @ 10 nM	Compound
47%	CCNCc1cncc(-c2ccc3[nH]nc(-c4ncc(C(=O)N5Cc6ccccc6C(c6ccccn6)C5)[nH]4)c3c2)c1C (centres unmarked) [Example 218, ethyl{[4-methyl-5-(3-{5-[(4-pyridin-2-yl-3,4-dihydroisoquinolin-2(1H)-yl)carbonyl]-1H-imidazxol-2-yl}-1H-indazol-5-yl)pyridin-3-yl]methyl}amine]
20%	CCNCc1cncc(-c2ccc3[nH]nc(-c4ncc(C(=O)NCC56CCCN5CCC6)[nH]4)c3c2)c1C [Example 219, 2-(5-{5-[(ethylamino)methyl]-4-methylpyridin-3-yl}-1H-indazol-3-yl)-N-(tetrahydro-1H-pyrrolizin-7a(5H)-ylmethyl)-1H-imidazole-5-carboxamide]
46%	CCNCc1cncc(-c2ccc3[nH]nc(-c4ncc(C(=O)N5C[C@H](C(=O)OC)[C@@H](c6cccnc6)C5)[nH]4)c3c2)c1C [Example 220, methyl(3R,4S)-1-{[2-(5-{5-[(ethylamino)methyl]-4-methylpyridin-3-yl}-1H-indazol-3-yl)-1H-imidazol-5-yl]carbonyl}-4-pyridin-3-ylpyrrolidine-3-carboxylate]
56%	CCNCc1cncc(-c2ccc3[nH]nc(-c4ncc(C(=O)NCCc5c[nH]c6ccc(F)cc56)[nH]4)c3c2)c1C [Example 221, 2-(5-{5-[(ethylamino)methyl]-4-methylpyridin-3-yl}-1H-indazol-3-yl)-N-[2-(5-fluoro-1H-indol-3-yl)ethyl]-1H-imidazole-5-carboxamide]
30%	CCNCc1cncc(-c2ccc3[nH]nc(-c4ncc(C(=O)N5CCCN(Cc6ccc(F)cc6)CC5)[nH]4)c3c2)c1C [Example 222, ethyl({5-[3-(5-{[4-(4-fluorobenzyl)-1,4-diazxepan-1-yl]carbonyl}1H-imidazol-2-yl)-1H-indazol-5-yl]-4-methylpyridin-3-yl}methyl)amine]
71%	CCNCc1cncc(-c2ccc3[nH]nc(-c4ncc(C(=O)NCCSc5ccc(F)cc5)[nH]4)c3c2)c1C [Example 223]
72%	CCNCc1cncc(-c2ccc3[nH]nc(-c4ncc(C(=O)NCc5ccc(-c6csnn6)cc5)[nH]4)c3c2)c1C [Example 224]
70%	CCNCc1cncc(-c2ccc3[nH]nc(-c4ncc(C(=O)N(C)Cc5cnn(-c6ccccc6)c5)[nH]4)c3c2)c1C [Example 225, 2-(5-{5-[(ethylamino)methyl]-4-methylpyridin-3-yl}-1H-indazol-3-yl)-N-methyl-N-[(1-phenyl-1H-pyrazol-4-yl)methyl]-1H-imidazole-5-carboxamide]
62%	CCNCc1cncc(-c2ccc3[nH]nc(-c4ncc(C(=O)N5CCN(c6ncccc6C#N)CC5)[nH]4)c3c2)c1C [Example 226]
84%	CCNCc1cncc(-c2ccc3[nH]nc(-c4ncc(C(=O)N5Cc6ccccc6C5)[nH]4)c3c2)c1C [Example 227, [(5-{3-[5-(1,3-dihydro-2H-isoindol-2-ylcarbonyl)-1H-imidazol-2-yl]-1H-indazol-5-yl}-4-methylpyridin-3-yl)methyl]ethylamine]
50%	CCNCc1cncc(-c2ccc3[nH]nc(-c4ncc(C(=O)N5CCN(Cc6ccccn6)CC5)[nH]4)c3c2)c1C [Example 228, ethyl({4-methyl-5-[3-(5-{[4-(pyridin-2-ylmethyl)piperazin-1-yl]carbonyl)-1H-imidazol-2-yl)-1H-indazol-5-yl]pyridin-3-yl}methyl)amine]
33%	CCNCc1cncc(-c2ccc3[nH]nc(-c4ncc(C(=O)N5CCN(CC6CCCO6)CC5)[nH]4)c3c2)c1C (centres unmarked) [Example 229, ethyl({4-methyl-5-[3-(5-{[4-(tetrahydrofuran-2-ylmethyl)piperazin-1-yl]carbonyl}-1H-imidazol-2-yl)-1H-indazol-5-yl]pyridin-3-yl}methyl)amine]
74%	CCNCc1cncc(-c2ccc3[nH]nc(-c4ncc(C(=O)N5CCN(c6ccc(F)cc6F)CC5)[nH]4)c3c2)c1C [Example 230]
67%	CCNCc1cncc(-c2ccc3[nH]nc(-c4ncc(C(=O)N5CCNC(=O)CC5)[nH]4)c3c2)c1C [Example 231, 1-{[2-(5-{5-[(ethylamino)methyl]-4-methylpyridin-3-yl}-1H-indazol-3-yl)-1H-imidazol-5-yl]carbonyl}-1,4-diazepan-5-one]
58%	CCNCc1cncc(-c2ccc3[nH]nc(-c4ncc(C(=O)N(CCOC)CCOC)[nH]4)c3c2)c1C [Example 232, 2-(5-{5-[(ethylamino)methyl]-4-methylpyridin-3-yl}-1H-indazol-3-yl)-N,N-bis(2-methoxyethyl)-1H-imidazole-5-carboxamide]
32%	CCNCc1cncc(-c2ccc3[nH]nc(-c4ncc(C(=O)N5CCCCC5Cc5ccccc5)[nH]4)c3c2)c1C (centres unmarked) [Example 233, {[5-(3-{5-[(2-benzylpipendin-1-yl)carbonyl]-1H-imidazal-2-yl)-1H-indazol-5-yl)-4-methylpyridin-3-yl]methyl}ethylamine]

% Inhib @ 10 nM	Compound
74%	CCNCc1cncc(-c2ccc3[nH]nc(-c4ncc(C(=O)N5CCc6nc(C)sc6C5)[nH]4)c3c2)c1C [Example 234, ethyl{[4-methyl-5-(3-{5-[(2-methyl-6,7-dihydro[1,3]thiazolo[5,4-c]pyridin-5-(4H)-yl)carbonyl]-1H-imidazol-2-yl)-1H-indazol-5-yl)pyridin-3-yl]methyl}amine]
63%	CCNCc1cncc(-c2ccc3[nH]nc(-c4ncc(C(=O)NCc5ccc(C(C)(C)O)cc5)[nH]4)c3c2)c1C [Example 235, 2-(5-{5-[(ethylamino)methyl]-4-methylpyridin-3-yl}-1H-indazol-3-yl)-N-[4-(1-hydroxy-1-methylethyl)benzyl]-1H-imidazole-5-carboxamide]
74%	CCNCc1cncc(-c2ccc3[nH]nc(-c4ncc(C(=O)N5CCN(c6cccc7ccccc67)CC5)[nH]4)c3c2)c1C [Example 236, ethyl({4-methyl-5-[3-(5-{[4-(1-naphthyl)piperazin-1-yl]carbonyl}-1H-imidazol-2-yl)-1H-indazol-5-yl]pyridin-3-yl}methyl)amine]
47%	CCNCc1cncc(-c2ccc3[nH]nc(-c4ncc(C(=O)NCC5COCCO5)[nH]4)c3c2)c1C (centres unmarked) [Example 237, N-(1,4-dioxan-2-ylmethyl)-2-(5-{5-[(ethyamino)methy]-4-methypyridin-3-yl}-1H-indazol-3-yl)-1H-imidazole-5-carboxamide]
75%	CCNCc1cncc(-c2ccc3[nH]nc(-c4ncc(C(=O)NCc5ccc6[nH]c(C)cc6c5)[nH]4)c3c2)c1C [Example 238, 2-(5-{5-[(ethylamino)methy]-4-methylpyridin-3-yl}-1H-indazol-3-yl)-N-[(2-methyl-1H-indol-5-yl)methyl]-1H-imidazole-5-carboxamide]
75%	CCNCc1cncc(-c2ccc3[nH]nc(-c4ncc(C(=O)N5CCC(Cc6ccccc6)C5)[nH]4)c3c2)c1C (centres unmarked) [Example 239]
71%	CCNCc1cncc(-c2ccc3[nH]nc(-c4ncc(C(=O)N5CCC(S(C)(=O)=O)C5)[nH]4)c3c2)c1C (centres unmarked) [Example 240]
59%	CCNCc1cncc(-c2ccc3[nH]nc(-c4ncc(C(=O)N(C)CCS(C)(=O)=O)[nH]4)c3c2)c1C [Example 241]
66%	CCNCc1cncc(-c2ccc3[nH]nc(-c4ncc(C(=O)N5CCC(c6cccnc6)C5)[nH]4)c3c2)c1C (centres unmarked) [Example 242, ethyl{[4-methyl-5-(3-{5-[(3-pyridin-3-ylpyrrolidin-1-yl)carbonyl]-1H-imidazol-2-yl}-1H-indazol-5-yl)pyridin-3-yl]methyl}amine]
34%	CCNCc1cncc(-c2ccc3[nH]nc(-c4ncc(C(=O)NCCC5CCOCC5)[nH]4)c3c2)c1C [Example 243, 2-(5-{5-[(ethylamino)methyl]-4-methylpyridin-3-yl}-1H-indazol-3-yl)-N-[2-(tetrahydro-2H-pyran-4-yl)ethyl]-1H-imidazole-5-carboxamide]
55%	CCNCc1cncc(-c2ccc3[nH]nc(-c4ncc(C(=O)NC(CO)c5cccnc5)[nH]4)c3c2)c1C (centres unmarked) [Example 244]
30%	CCNCc1cncc(-c2ccc3[nH]nc(-c4ncc(C(=O)N(CCO)C5CCCCC5)[nH]4)c3c2)c1C [Example 245, N-cyclohexyl-2-(5-{5-[(ethylamino)methyl]-4-methylpyridin-3-yl}-1H-indazol-3-yl)-N-(2-hydroxyethyl)-1H-imidazole-5-carboxamide]
26%	CCNCc1cncc(-c2ccc3[nH]nc(-c4ncc(C(=O)N5CCN(CC(=O)N6CCCCC6)CC5)[nH]4)c3c2)c1C [Example 246, ethyl({4-methyl-5-[3-(5-{[4-(2-oxo-2-piperidin-1-ylethyl)piperazin-1-yl]carbonyl}-1H-imidazol-2-yl)-1H-indazol-5-yl]pyridin-3-yl}methyl)amine]
26%	CCNCc1cncc(-c2ccc3[nH]nc(-c4ncc(C(=O)N5CCC(n6c(C)nc7cnccc76)CC5)[nH]4)c3c2)c1C [Example 247, ethyl({4-methyl-5-[3-(5-{[4-(2-methyl-1H-imidazol[4,5-c]pyridin-1-yl)piperidin-1-yl]carbonyl}-1H-imidazol-2-yl)-1H-indazol-5-yl]pyridin-3-yl}methyl)amine]
67%	CCNCc1cncc(-c2ccc3[nH]nc(-c4ncc(C(=O)NCc5ccc(OC(F)F)cc5)[nH]4)c3c2)c1C [Example 248, N-[4-(difluoromethoxy)benzyl]-2-(5-{5-[(ethylamino)methyl]-4-methylpyridin-3-yl}-1H-indazol-3-yl)-1H-imidazole-5-carboxamide]
69%	CCNCc1cncc(-c2ccc3[nH]nc(-c4ncc(C(=O)NCC(O)COc5ccccc5)[nH]4)c3c2)c1C (centres unmarked) [Example 249, 2-(5-{5-[(ethylamino)methyl]-4-methylpyridin-3-yl}-1H-indazol-3-yl)-N-(2-hydroxy-3-phenoxypropyl)-1H-imidazole-5-carboxamide]
